Results: patent US6475801B1, “Anticoagulant and hemanalysis method” (Sysmex Corporation, priority 1998, dated 2002)

Legend:
[1] = tested on: platelets; test: Examination on EDTA-dependant pseudothrombocytopenia (platelet counting); type: cell-based, human; settings: FIG. 1
Experimental: Blood samples to which CTAD of the present invention or EDTA-2K was added were subjected to the platelet counting in order to compare them with regard to the EDTA-dependant Pseudothrombocytopenia.

[2] = tested on: platelets; test: Examination on cold agglutination (platelet counting after cold storage); type: cell-based, human
Experimental: Blood samples to which CTAD of the present invention or EDTA-2K was added were subjected to the platelet counting in order to compare them with regard to cold agglutination (the pseudothrombocytopenia in cold storage). […]

[3] = tested on: platelets; test: Change with time in the mean platelet volume (MPV); type: cell-based, human; settings: FIG. 2
Experimental: Blood samples to which CTAD of the present invention or EDTA-2K was added were compared with regard to change with time in the size of platelets.

[4] = tested on: blood coagulation; test: Blood coagulation tests (CA-1000), Example 1 A; parameters: species or system human; settings: mean of four normal samples
From the text: Blood was collected into test tubes containing the anticoagulant (CTAD) prepared as above and subjected to blood cell count tests (leukocyte count (WBC), ratios of leukocytic components (neutrophil ratio (NEUT%), lymphocyte ratio (LYMPH%), monocyte ratio (MONO%), eosinophil ratio (EOSI%) and basophil ratio (BASO%)), erythrocyte count (RBC), hemoglobin concentration (Hgb), hematocrit (Hct), MCV, MCH, MCHC and platelet count (PLT))(used counter: SE-9000™ produced by Sysmex Corporation, Japan) and coagulation tests (prothrombin time (PT), activated partial thromboplastin time (APTT), fibrinogen determination (Fbg))(used tester:CA-1000 produced by Sysmex Corporation, Japan).
EDTA-2K (Venoject II™ or 5 ml produced by Terumo), 5 mg, was used as a control for the blood cell count tests and a 3.8% solution of sodium citrate (3.8% solution of sodium citrate for 5 ml produced by Terumo, Japan), 0.5 ml, was used as a control for the blood coagulation tests, respectively, in place of the above anticoagulant.
The tests were conducted with four normal samples, and mean values are calculated.

SMILES | change with time in the number of platelets [1] | decrease of platelets in cold storage ([2]; 4° C., eight hours after collected) | PLT (platelet count) ([2]; 37° C. (control)) | PLT (platelet count) ([2]; preserved at 4° C., examined eight hours after collected) | change with time in the size of platelets (mean platelet volume) [3] | APTT (activated partial thromboplastin time) [4] | Fbg (fibrinogen determination) [4] | PT (prothrombin time) [4]
O=C([O-])CN(CCN(CC(=O)O)CC(=O)O)CC(=O)[O-].[K+].[K+] [EDTA-2K] | decreased with time | Platelets decreased | 17.6 ×10^4 | 9.0 ×10^4 | grew in size with time |  |  | 
O=C([O-])CC(O)(CC(=O)[O-])C(=O)[O-].[Na+].[Na+].[Na+] [sodium citrate] |  |  |  |  |  | 28.6 s | 9.8 s | 9.5 s
